Several values for one entry are separate records, joined by “and”; a condition that tells them apart may be missing. Equal entries are not always repeated. Inconclusive results and toxic doses are left out.

This experiment has as its system CD2F1 mice, L1210 leukemia ip, survival T/C. Description: NCI In Vivo Anticancer Drug Screen. Data for tumor model L1210 Leukemia (intraperitoneal) in CD2F1 (CDF1) mice. Particulars: higher = longer survival. In outline:
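In this screen, transplantable tumors were grown in mice given either the compound or its vehicle. Results were expressed as the treated measurement relative to the control measurement.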

Setting [1] is: endpoint: mean survival time, dose: 100.0 mg/kg/injection, schedule: Q01DX009 (ip), vehicle: saline with Tween-80.
Setting [2] is: endpoint: mean survival time, dose: 100.0 mg/kg/injection, schedule: Q04DX003 (ip), vehicle: saline with Tween-80.
Where [3] appears, read: endpoint: mean survival time, dose: 200.0 mg/kg/injection, schedule: Q01DX009 (ip), vehicle: saline with Tween-80.
[4] abbreviates: endpoint: mean survival time, dose: 200.0 mg/kg/injection, schedule: Q04DX003 (ip), vehicle: saline with Tween-80.
Setting [5] is: endpoint: mean survival time, dose: 400.0 mg/kg/injection, schedule: Q04DX003 (ip), vehicle: saline with Tween-80.
The mark [6] stands for this setting: endpoint: mean survival time, dose: 50.0 mg/kg/injection, schedule: Q01DX009 (ip), vehicle: saline with Tween-80.
[7] abbreviates: endpoint: mean survival time, dose: 100.0 mg/kg/injection, schedule: Q01DX001 (ip), vehicle: saline.
Where [8] appears, read: endpoint: mean survival time, dose: 200.0 mg/kg/injection, schedule: Q01DX001 (ip), vehicle: saline.
Setting [9] is: endpoint: mean survival time, dose: 100.0 mg/kg/injection, schedule: Q04DX002 (ip), vehicle: saline with Tween-80.
The mark [10] stands for this setting: endpoint: mean survival time, dose: 200.0 mg/kg/injection, schedule: Q04DX002 (ip), vehicle: saline with Tween-80.
[11] abbreviates: endpoint: mean survival time, dose: 400.0 mg/kg/injection, schedule: Q04DX002 (ip), vehicle: saline with Tween-80.
Where [12] appears, read: endpoint: mean survival time, dose: 50.0 mg/kg/injection, schedule: Q04DX003 (ip), vehicle: Klucel (hydroxypropylcellulose) (HPC).
Setting [13] is: endpoint: mean survival time, dose: 100.0 mg/kg/injection, schedule: Q04DX003 (ip), vehicle: Klucel (hydroxypropylcellulose) (HPC).
Where [14] appears, read: endpoint: mean survival time, dose: 200.0 mg/kg/injection, schedule: Q04DX003 (ip), vehicle: Klucel (hydroxypropylcellulose) (HPC).

Regarding `Cc1ccc(NC(=O)c2ccccc2)c(C)c1`, the T/C is 90 % of control under setting [1]; 92 % of control under setting [2]; 86 % of control under setting [3]; 92 % of control under setting [4]; 92 % of control under setting [5].

For the molecule `CC(=O)CC(C)(C)C1CCCCC1`, the T/C is 93 % of control (endpoint: mean survival time, dose: 25.0 mg/kg/injection, schedule: Q01DX009 (ip), vehicle: Klucel (hydroxypropylcellulose) (HPC)); 93 % of control (endpoint: mean survival time, dose: 50.0 mg/kg/injection, schedule: Q01DX009 (ip), vehicle: Klucel (hydroxypropylcellulose) (HPC)); 96 % of control (endpoint: mean survival time, dose: 100.0 mg/kg/injection, schedule: Q01DX009 (ip), vehicle: Klucel (hydroxypropylcellulose) (HPC)); 93 % of control (endpoint: mean survival time, dose: 200.0 mg/kg/injection, schedule: Q01DX009 (ip), vehicle: Klucel (hydroxypropylcellulose) (HPC)).

With `Nc1nc(N)n2nnnc2c1[N+](=O)[O-]`, the T/C (endpoint: mean survival time, dose: 100.0 mg/kg/injection, schedule: Q01DX001 (ip), vehicle: carboxymethylcellulose (CMC)) is 108 % of control.

For `Nc1cccc(CCCCc2cccc(S(=O)(=O)F)c2)c1`, the T/C is 97 % of control under setting [6]; 95 % of control under setting [1]; 100 % of control under setting [2]; 97 % of control under setting [3]; 95 % of control under setting [4].

For the molecule `Cc1ccn(C)c(=N)c1`, the T/C runs as follows: (endpoint: mean survival time, dose: 100.0 mg/kg/injection, schedule: Q01DX009 (ip), vehicle: saline sonified) 97 % of control; under setting [2], 94 % of control; (endpoint: mean survival time, dose: 200.0 mg/kg/injection, schedule: Q01DX009 (ip), vehicle: saline sonified) 98 % of control; under setting [4], 93 % of control; under setting [5], 93 % of control.

Turning to `Cc1nc(N)nc(N)n1`, the T/C by setting is: under setting [2], 100 % of control; under setting [4], 100 % of control; under setting [5], 97 % of control.

With `NNC(=O)Nc1cccnc1`, the T/C was 106 % of control (endpoint: mean survival time, dose: 18.75 mg/kg/injection, schedule: Q01DX009 (ip), vehicle: saline); 98 % of control (endpoint: mean survival time, dose: 37.5 mg/kg/injection, schedule: Q01DX009 (ip), vehicle: saline); 101 % of control (endpoint: mean survival time, dose: 75.0 mg/kg/injection, schedule: Q01DX009 (ip), vehicle: saline).

Take `CC(CN1CCCCC1)C(=O)c1ccc(-c2ccccc2)cc1` (centres undefined): the T/C by setting is: (endpoint: mean survival time, dose: 25.0 mg/kg/injection, schedule: Q01DX009 (ip), vehicle: saline with Tween-80) 97 % of control; under setting [6], 100 % of control; under setting [1], 97 % of control.

For `CCC[CH2][Pb]([CH2]CCC)([CH2]CCC)[O]C(C)=O`, the T/C (endpoint: mean survival time, dose: 2.5 mg/kg/injection, schedule: Q01DX001 (ip), vehicle: other) was 96 % of control; the T/C (endpoint: mean survival time, dose: 5.0 mg/kg/injection, schedule: Q01DX001 (ip), vehicle: other) was 115 % of control; the T/C (endpoint: mean survival time, dose: 10.0 mg/kg/injection, schedule: Q01DX001 (ip), vehicle: other) is 93 % of control; the T/C (endpoint: mean survival time, dose: 25.0 mg/kg/injection, schedule: Q04DX003 (ip), vehicle: saline with Tween-80) is 95 % of control; the T/C (endpoint: mean survival time, dose: 50.0 mg/kg/injection, schedule: Q04DX003 (ip), vehicle: saline with Tween-80) was 87 % of control.

On to `CCOC(=O)NC1CCc2cc(OC)c(OC)c(OC)c2-c2ccc(OC)c(=O)cc21` (centres undefined), for which the T/C by setting is: (endpoint: median survival time, dose: 2.5 mg/kg/injection, schedule: Q01DX005 (ip), vehicle: Klucel (hydroxypropylcellulose) (HPC)) 171 % of control; (endpoint: median survival time, dose: 3.0 mg/kg/injection, schedule: Q01DX005 (ip), vehicle: Klucel (hydroxypropylcellulose) (HPC)) 164 % of control; (endpoint: median survival time, dose: 5.0 mg/kg/injection, schedule: Q01DX005 (ip), vehicle: Klucel (hydroxypropylcellulose) (HPC)) 179 % of control and 187 % of control; (endpoint: median survival time, dose: 8.33 mg/kg/injection, schedule: Q01DX005 (ip), vehicle: Klucel (hydroxypropylcellulose) (HPC)) 107 % of control.

Turning to `COc1ccc2c(c1OC(C)=O)-c1cc(O)cc3c1C(C2)N(C(=O)CN(CCCl)CCCl)CC3` (centres undefined), the T/C (endpoint: mean survival time, dose: 6.25 mg/kg/injection, schedule: Q04DX003 (ip), vehicle: DMSO) was 98 % of control; the T/C (endpoint: mean survival time, dose: 12.5 mg/kg/injection, schedule: Q04DX003 (ip), vehicle: DMSO) is 91 % of control; the T/C (endpoint: mean survival time, dose: 25.0 mg/kg/injection, schedule: Q04DX003 (ip), vehicle: DMSO) was 100 % of control; the T/C (endpoint: mean survival time, dose: 50.0 mg/kg/injection, schedule: Q04DX003 (ip), vehicle: DMSO) is 102 % of control.

As to `O=C1C=CC2OC(c3ccccc3)C(O)C2O1` (centres undefined), the T/C is 111 % of control (endpoint: median survival time, dose: 3.12 mg/kg/injection, schedule: Q01DX005 (ip), vehicle: DMSO); 101 % of control (endpoint: median survival time, dose: 6.25 mg/kg/injection, schedule: Q01DX005 (ip), vehicle: DMSO); 112 % of control (endpoint: median survival time, dose: 12.5 mg/kg/injection, schedule: Q01DX005 (ip), vehicle: DMSO); 115 % of control (endpoint: median survival time, dose: 25.0 mg/kg/injection, schedule: Q01DX005 (ip), vehicle: DMSO); 87 % of control (endpoint: median survival time, dose: 50.0 mg/kg/injection, schedule: Q01DX005 (ip), vehicle: DMSO).

In the case of `O=S1(=O)N=C2C3CCN(CC3)C2C(c2ccccc2)N1` (centres undefined), the T/C reads like this: (endpoint: mean survival time, dose: 50.0 mg/kg/injection, schedule: Q01DX001 (ip), vehicle: saline) 94 % of control; under setting [7], 101 % of control; under setting [8], 101 % of control.

For the molecule `CCCCSC(=O)Nc1ccccc1`, the T/C by setting is: under setting [9], 95 % of control; under setting [10], 92 % of control; under setting [11], 92 % of control.

As for `CCOC(=O)NCCCNC(=O)OCC`, the T/C is 104 % of control (endpoint: mean survival time, dose: 100.0 mg/kg/injection, schedule: Q01DX009 (ip), vehicle: saline); 95 % of control (endpoint: mean survival time, dose: 200.0 mg/kg/injection, schedule: Q01DX009 (ip), vehicle: saline); 93 % of control (endpoint: mean survival time, dose: 400.0 mg/kg/injection, schedule: Q01DX009 (ip), vehicle: saline).

For the molecule `C=C(C)C1Cc2c(ccc3c2OC2COc4cc(OC)c(OC)cc4C2C3=O)O1` (centres undefined), the T/C reads like this: under setting [1], 92 % of control; under setting [2], 103 % of control; under setting [3], 93 % of control; under setting [4], 101 % of control; (endpoint: mean survival time, dose: 400.0 mg/kg/injection, schedule: Q01DX009 (ip), vehicle: saline with Tween-80) 94 % of control; under setting [5], 97 % of control.

With `CC(=O)Nc1c(N=Cc2ccc([N+](=O)[O-])cc2)cc2c3c(cccc13)CC2`, the T/C was 91 % of control under setting [12], 96 % of control under setting [13] and 94 % of control under setting [14].

Regarding `CN(C)C(=S)Oc1ccc(S(=O)(=O)F)cc1F`, the T/C under setting [9] was 93 % of control, the T/C under setting [10] was 93 % of control and the T/C under setting [11] is 104 % of control.

Consider `CCOC(=O)C(Cc1cccc2ccccc12)P(=O)(OCC)OCC` (centres undefined), for which the T/C by setting is: under setting [7], 108 % of control; under setting [8], 108 % of control; (endpoint: mean survival time, dose: 400.0 mg/kg/injection, schedule: Q01DX001 (ip), vehicle: saline) 106 % of control.

On to `N#CSCCOCCSC#N`, for which the T/C is 100 % of control (endpoint: mean survival time, dose: 2.5 mg/kg/injection, schedule: Q04DX003 (ip), vehicle: saline with Tween-80) and 96 % of control (endpoint: mean survival time, dose: 5.0 mg/kg/injection, schedule: Q04DX003 (ip), vehicle: saline with Tween-80).

As to `CNC(=O)Nc1nc2ccccc2[nH]1`, the T/C under setting [12] was 101 % of control; the T/C under setting [13] is 102 % of control; the T/C under setting [14] is 104 % of control; the T/C (endpoint: mean survival time, dose: 400.0 mg/kg/injection, schedule: Q04DX003 (ip), vehicle: Klucel (hydroxypropylcellulose) (HPC)) is 102 % of control.

Regarding `C=CCN(CC=C)/N=N/c1nc[nH]c1C(N)=O`, the T/C was 98 % of control under setting [2], 105 % of control under setting [4] and 100 % of control under setting [5].

Regarding `CCN(CC)C(=O)c1cc[n+](Cc2ccc(Cl)c(Cl)c2)cc1`, the T/C reads like this: under setting [6], 102 % of control; under setting [1], 105 % of control; under setting [2], 100 % of control; under setting [4], 102 % of control.

The record behind these values is PubChem BioAssay AID256 (DTP/NCI, 2004).
